# According to patent US8952024B2, “Herbicidal pyrimidone derivatives” (E I du Pont de Nemours and Company, priority 2009, dated 2015):
# Experiments:
# Assay type in all cases: in vivo
# [1] = tested on: barnyardgrass (Echinochloa crus-galli); assay: Test A pre-/postemergence plant response
# Outline: (§1)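 Pre: directed soil spray on seeded loam/sand blend. Post: same formulation (non-phytotoxic solvent + surfactant) on 2–10 cm plants, 1–2 leaf stage. Greenhouse ~10 d; visual injury score 0–100 vs untreated.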
# [2] = tested on: pigweed (Amaranthus retroflexus); assay: Test A pre-/postemergence plant response
# Outline: as §1
# [3] = tested on: Italian ryegrass (Lolium multiflorum); assay: Test B pre-/postemergence plant response
# Outline: (§2)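 Visual injury, 0–100 scale (100 = complete control), rated against controls after 13 to 15 days in greenhouse. Pre-emergence: seeds in loam/sand soil, treated at planting. Post-emergence: 1- to 4-leaf plants (2 to 18 cm) in peat/vermiculite medium. Compounds formulated in non-phytotoxic solvent with surfactant.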
# [4] = tested on: Surinam grass (Brachiaria decumbens); assay: Test B pre-/postemergence plant response
# Outline: as §2
# [5] = tested on: blackgrass (Alopecurus myosuroides); assay: Test B pre-/postemergence plant response
# Outline: as §2
# [6] = tested on: downy bromegrass (Bromus tectorum); assay: Test B pre-/postemergence plant response
# Outline: as §2
# [7] = tested on: goosegrass (Eleusine indica); assay: Test B pre-/postemergence plant response
# Outline: as §2
# [8] = tested on: large crabgrass (Digitaria sanguinalis); assay: Test B pre-/postemergence plant response
# Outline: as §2
# [9] = tested on: morningglory (Ipomoea coccinea); assay: Test B pre-/postemergence plant response
# Outline: as §2
# [10] = tested on: velvetleaf (Abutilon theophrasti); assay: Test B pre-/postemergence plant response
# Outline: as §2
# [11] = tested on: wheat (Triticum aestivum); assay: Test B pre-/postemergence plant response
# Outline: as §2
# [12] = tested on: woolly cupgrass (Eriochloa villosa); assay: Test B pre-/postemergence plant response
# Outline: as §2
# [13] = tested on: yellow nutsedge (Cyperus esculentus); assay: Test B pre-/postemergence plant response
# Outline: as §2
# [14] = Postemergence, 125 g ai/ha, visual injury, 0 to 100 scale (0 no effect, 100 complete control), approx. ten days
# [15] = Postemergence, 500 g ai/ha, 0 to 100 scale, 0 = no effect, 100 = complete control, approx. ten days
# [16] = Preemergence, 125 g ai/ha, 0 to 100 scale, 0 = no effect, 100 = complete control
# [17] = Preemergence, 500 g ai/ha, visual injury, 0 to 100 scale (0 no effect, 100 complete control), approx. ten days
# [18] = 31 g ai/ha, postemergence, scale 0 to 100, 0 is no effect, 100 is complete control
# [19] = Postemergence, 62 g ai/ha, scale 0 (no effect) to 100 (complete control), 13 to 15 days
# [20] = Postemergence, 125 g ai/ha, visual rating after 13 to 15 days, scale 0 (no effect) to 100 (complete control)
# [21] = Postemergence, 250 g ai/ha, scale 0 to 100 (0 no effect, 100 complete control)
# [22] = Preemergence, 31 g ai/ha, scale 0 to 100 (0 no effect, 100 complete control)
# [23] = Preemergence, 62 g ai/ha, scale 0 to 100, 0 no effect, 100 complete control
# [24] = Preemergence, 125 g ai/ha, scale 0 to 100, 0 no effect, 100 complete control
# [25] = 250 g ai/ha, Preemergence, 0 to 100 scale
# [26] = Postemergence, 125 g ai/ha, 0 to 100 scale where 0 is no effect and 100 is complete control
# [27] = Postemergence, 500 g ai/ha, visual injury, 0 to 100 scale (0 no effect, 100 complete control), approx. ten days
# [28] = Preemergence, 500 g ai/ha, 0 to 100 scale, 0 = no effect, 100 = complete control
# [29] = Postemergence, 31 g ai/ha, 0 to 100 scale (0 no effect, 100 complete control)
# [30] = Postemergence, 250 g ai/ha, scale 0 to 100 (0 no effect, 100 complete control), 13 to 15 days
# [31] = Postemergence, 62 g ai/ha, scale 0 to 100 (0 no effect, 100 complete control)
# [32] = Postemergence, 125 g ai/ha, scale 0 to 100 (0 no effect, 100 complete control)
structure (smiles),measurement,setting,value
Cc1cccc(-n2c(-c3ccccc3)ncc(C(=O)C3=C(O)CCCC3=O)c2=O)c1F [Compound 58],Barnyardgrass plant response rating,[1]; [14],50
same,"Plant response rating, Barnyardgrass",[1]; [15],90
same,"Plant response rating, Barnyardgrass",[1]; [16],30
same,"Plant response rating, Barnyardgrass",[1]; [17],90
same,Pigweed plant response rating,[2]; [14],100
same,"Plant response rating, Pigweed",[2]; [15],100
same,"Plant response rating, Pigweed",[2]; [16],70
same,"Plant response rating, Pigweed",[2]; [17],100
same,"Plant response rating, Ryegrass, Italian",[3]; [18],0
same,"Plant response rating, Ryegrass, Italian",[3]; [19],0
same,"Plant response rating, Ryegrass, Italian",[3]; [20],30
same,"Plant response rating, Ryegrass, Italian",[3]; [21],70
same,"Plant response rating, Ryegrass, Italian",[3]; [22],0
same,"Plant response rating, Ryegrass, Italian",[3]; [23],0
same,"Plant response rating, Ryegrass, Italian",[3]; [24],0
same,"Plant response rating, Surinam Grass",[4]; [18],70
same,"Plant response rating, Surinam Grass",[4]; [19],80
same,"Plant response rating, Surinam Grass",[4]; [20],95
same,"Plant response rating, Surinam Grass",[4]; [21],98
same,"Plant response rating, Surinam Grass",[4]; [22],40
same,"Plant response rating, Surinam Grass",[4]; [23],65
same,"Plant response rating, Surinam Grass",[4]; [24],85
same,"Plant response rating, Blackgrass",[5]; [18],5
same,"Plant response rating, Blackgrass",[5]; [25],30
same,"Plant response rating, Blackgrass",[5]; [19],10
same,"Plant response rating, Blackgrass",[5]; [20],20
same,"Plant response rating, Blackgrass",[5]; [21],40
same,"Plant response rating, Blackgrass",[5]; [22],0
same,"Plant response rating, Blackgrass",[5]; [23],0
same,"Plant response rating, Blackgrass",[5]; [24],5
same,"Plant response rating, Bromegrass, Downy",[6]; [18],40
same,"Plant response rating, Bromegrass, Downy",[6]; [25],0
same,"Plant response rating, Bromegrass, Downy",[6]; [19],40
same,"Plant response rating, Bromegrass, Downy",[6]; [20],45
same,"Plant response rating, Bromegrass, Downy",[6]; [21],50
same,"Plant response rating, Bromegrass, Downy",[6]; [22],0
same,"Plant response rating, Bromegrass, Downy",[6]; [23],0
same,"Plant response rating, Bromegrass, Downy",[6]; [24],0
same,"Plant response rating, Goosegrass",[7]; [18],70
same,"Plant response rating, Goosegrass",[7]; [25],100
same,"Plant response rating, Goosegrass",[7]; [19],75
same,"Plant response rating, Goosegrass",[7]; [20],85
same,"Plant response rating, Goosegrass",[7]; [21],90
same,"Plant response rating, Goosegrass",[7]; [22],95
same,"Plant response rating, Goosegrass",[7]; [23],98
same,"Plant response rating, Goosegrass",[7]; [24],100
same,"Plant response rating, Crabgrass, Large",[8]; [18],75
same,"Plant response rating, Crabgrass, Large",[8]; [25],100
same,"Plant response rating, Crabgrass, Large",[8]; [19],80
same,"Plant response rating, Crabgrass, Large",[8]; [20],90
same,"Plant response rating, Crabgrass, Large",[8]; [21],90
same,"Plant response rating, Crabgrass, Large",[8]; [22],95
same,"Plant response rating, Crabgrass, Large",[8]; [23],98
same,"Plant response rating, Crabgrass, Large",[8]; [24],98
same,"Plant response rating, Morningglory",[9]; [18],65
same,"Plant response rating, Morningglory",[9]; [19],80
same,"Plant response rating, Morningglory",[9]; [20],90
same,"Plant response rating, Morningglory",[9]; [21],90
same,"Plant response rating, Morningglory",[9]; [22],0
same,"Plant response rating, Morningglory",[9]; [23],0
same,"Plant response rating, Morningglory",[9]; [24],55
same,"Plant response rating, Velvetleaf",[10]; [18],75
same,"Plant response rating, Velvetleaf",[10]; [19],75
same,"Plant response rating, Velvetleaf",[10]; [20],85
same,"Plant response rating, Velvetleaf",[10]; [21],95
same,"Plant response rating, Velvetleaf",[10]; [22],75
same,"Plant response rating, Velvetleaf",[10]; [23],80
same,"Plant response rating, Velvetleaf",[10]; [24],95
same,"Plant response rating, Wheat",[11]; [18],0
same,"Plant response rating, Wheat",[11]; [19],0
same,"Plant response rating, Wheat",[11]; [20],0
same,"Plant response rating, Wheat",[11]; [21],0
same,"Plant response rating, Wheat",[11]; [22],0
same,"Plant response rating, Wheat",[11]; [23],0
same,"Plant response rating, Wheat",[11]; [24],0
same,"Plant response rating, Cupgrass, Woolly",[12]; [18],65
same,"Plant response rating, Cupgrass, Woolly",[12]; [25],85
same,"Plant response rating, Cupgrass, Woolly",[12]; [19],65
same,"Plant response rating, Cupgrass, Woolly",[12]; [20],70
same,"Plant response rating, Cupgrass, Woolly",[12]; [21],95
same,"Plant response rating, Cupgrass, Woolly",[12]; [22],10
same,"Plant response rating, Cupgrass, Woolly",[12]; [23],10
same,"Plant response rating, Cupgrass, Woolly",[12]; [24],20
same,"Plant response rating, Nutsedge, Yellow",[13]; [18],25
same,"Plant response rating, Nutsedge, Yellow",[13]; [19],40
same,"Plant response rating, Nutsedge, Yellow",[13]; [20],55
same,"Plant response rating, Nutsedge, Yellow",[13]; [21],75
same,"Plant response rating, Nutsedge, Yellow",[13]; [22],20
same,"Plant response rating, Nutsedge, Yellow",[13]; [23],75
same,"Plant response rating, Nutsedge, Yellow",[13]; [24],75
CCn1c(-c2cccc(F)c2)ncc(C(=O)C2=C(O)C3CCC(C3)C2=O)c1=O (stereo not drawn) [Compound 236],"Plant response rating, Barnyardgrass",[1]; [26],90
same,Barnyardgrass plant response rating,[1]; [27],90
same,"Plant response rating, Barnyardgrass",[1]; [16],50
same,"Plant response rating, Barnyardgrass",[1]; [28],90
same,"Plant response rating, Pigweed",[2]; [26],80
same,Pigweed plant response rating,[2]; [27],100
same,"Plant response rating, Pigweed",[2]; [16],80
same,"Plant response rating, Pigweed",[2]; [28],90
same,"Plant response rating, Ryegrass, Italian",[3]; [29],0
same,"Plant response rating, Ryegrass, Italian",[3]; [30],5
same,"Plant response rating, Ryegrass, Italian",[3]; [31],0
same,"Plant response rating, Surinam Grass",[4]; [29],60
same,"Plant response rating, Surinam Grass",[4]; [31],70
same,"Plant response rating, Blackgrass",[5]; [29],0
same,"Plant response rating, Blackgrass",[5]; [32],30
same,"Plant response rating, Blackgrass",[5]; [30],40
same,"Plant response rating, Blackgrass",[5]; [31],5
same,"Plant response rating, Bromegrass, Downy",[6]; [29],0
same,"Plant response rating, Bromegrass, Downy",[6]; [32],10
same,"Plant response rating, Bromegrass, Downy",[6]; [30],25
same,"Plant response rating, Bromegrass, Downy",[6]; [31],5
same,"Plant response rating, Goosegrass",[7]; [29],80
same,"Plant response rating, Goosegrass",[7]; [32],95
same,"Plant response rating, Goosegrass",[7]; [30],100
same,"Plant response rating, Goosegrass",[7]; [31],90
same,"Plant response rating, Crabgrass, Large",[8]; [29],75
same,"Plant response rating, Crabgrass, Large",[8]; [32],98
same,"Plant response rating, Crabgrass, Large",[8]; [30],100
same,"Plant response rating, Crabgrass, Large",[8]; [31],90
same,"Plant response rating, Morningglory",[9]; [29],60
same,"Plant response rating, Morningglory",[9]; [32],95
same,"Plant response rating, Morningglory",[9]; [31],95
same,"Plant response rating, Velvetleaf",[10]; [29],98
same,"Plant response rating, Velvetleaf",[10]; [30],100
same,"Plant response rating, Velvetleaf",[10]; [31],100
same,"Plant response rating, Wheat",[11]; [29],0
same,"Plant response rating, Wheat",[11]; [30],60
same,"Plant response rating, Wheat",[11]; [31],10
same,"Plant response rating, Cupgrass, Woolly",[12]; [29],70
same,"Plant response rating, Cupgrass, Woolly",[12]; [32],95
same,"Plant response rating, Cupgrass, Woolly",[12]; [31],85
same,"Plant response rating, Nutsedge, Yellow",[13]; [29],0
same,"Plant response rating, Nutsedge, Yellow",[13]; [32],15
same,"Plant response rating, Nutsedge, Yellow",[13]; [30],65
same,"Plant response rating, Nutsedge, Yellow",[13]; [31],15
